A short description of series [1]: Rat pharmacokinetic parameters in rat plasma. Type of series: in vivo. The note with it: male SD rats; for bioavailability: PO 10 mg/kg vs iv 1 mg/kg, read-out: F (%) oral bioavailability. As for the experimental part:
Healthy male SD rats aged 6-9 weeks were selected and randomly divided into two groups, with 3 rats in each group. One group was given 1 mg/kg of the test compound by intravenous injection, and the other group was given 10 mg/kg of the test compound by gavage. Whole blood was collected from the animals in the intravenous group and the gavage group before administration and 0.083, 0.25, 0.5, 1.0, 2.0, 4.0, 7.0, 10.0, and 24.0 h after administration and centrifuged to obtain plasma samples.
All biological samples were quantitatively analyzed using the LC-MS/MS method. Pharmacokinetic parameters were calculated using the non-compartmental model linear-log trapezoidal method using WinNonlinTMVersion7.0 (Pharsight, Mountain View, CA) pharmacokinetic software. AUC0-last represents the area under the plasma concentration-time curve from time point zero to the last detectable concentration time point; PO represents oral administration; iv represents intravenous, Cmax represents the peak concentration, and F % represents oral bioavailability.

A further series deals with OX1 receptor (Homo sapiens (Human), UniProt O43613). The experiment in a line: In vitro activity test (Cisbio IP-one, CHO-K1-OX1 cells, antagonism of EC80 Orexin A). In kind it is cell-based. The method, then:
(§1) (1) Preparation of a reaction buffer (1×Stimulation buffer) required for the experiment: The 5×Stimulation buffer and ddH2O in the Cisbio IP-one kit were diluted in a ratio of 1:4 for later use.
(§2) (2) Compound preparation: The compound was diluted with DMSO to obtain a 5 mM stock solution, followed by a 3.16-fold dilution to obtain 10 gradients, and then the prepared compound was diluted with the Stimulation buffer to the corresponding concentrations (4×) for later use.
(§3) (3) Cell preparation: CHO-K1-OX1 and CHO-K1-OX2 cells on the culture dish were digested with trypsin, and the cells were washed off with culture medium and collected into 5 mL centrifuge tubes. The cells were centrifuged at 1000 rpm for 5 min, and the supernatant was discarded. 3 mL of PBS was added, and the mixture was gently pipetted to be mixed well. The cells were centrifuged again at 1000 rpm for 5 min, and the supernatant was discarded. The cells were resuspended in 1×Stimulation buffer and counted using a Countstar cell counter, and the cell density was adjusted to 1.71×10^6 cells/mL for later use.
(§4) (4) Cell addition: The cell suspensions were added to assay plates at 7 μL/well (i.e., about 12,000 cells/well).
(§5) (5) Compound addition: The compound diluted with the Stimulation buffer was added to the assay plates described above at 3.5 μL/well.
(§6) (6) Reaction and incubation: After gentle shaking, the assay plates were incubated at 37° C. for 30 min.
(§7) (7) EC80 agonist addition: 4×Orexin A (OX1 receptor) and 4×Orexin 2 receptor agonist (OX2 receptor) solutions of EC80 were added at 3.5 μL/well.
(§8) (8) Reaction and incubation: After gentle shaking, the assay plates were incubated at 37° C. for 45 min.
(§9) (9) Detection reagent addition: IP1-d2 and Anti-IP1 cryptate were separately diluted in a 1:20 ratio with the Lysis & detection buffer in the Cisbio IP-one detection kit, and the diluted IP1-d2 and Anti-IP1 cryptate described above were added to the assay plates, each at 3 μL/well. After shaking, the assay plates were left to stand at room temperature for 60 min.
(§10) (10) Experimental readings: The plate was read on Envision, readings from the 665 nm and 615 nm channels were taken, and the ratio of 665 nm/615 nm readings was calculated.
(§11) Based on the antagonistic effect values of the compound sample at different concentration test points, antagonistic curves of the compound sample against the orexin receptors were fitted using GraphPad Prism software, and the IC50 was calculated.

For the next series, the target named is OX2 receptor (Homo sapiens (Human), UniProt O43614). As to the kind of experiment: In vitro activity test (Cisbio IP-one, CHO-K1-OX2 cells, antagonism of EC80 agonist). Type of series: cell-based. As for the experimental part: as §1, §2, §3, §4, §5, §6, §7, §8, §9, §10, §11
Chain of OX2 receptor (O43614 whole entry): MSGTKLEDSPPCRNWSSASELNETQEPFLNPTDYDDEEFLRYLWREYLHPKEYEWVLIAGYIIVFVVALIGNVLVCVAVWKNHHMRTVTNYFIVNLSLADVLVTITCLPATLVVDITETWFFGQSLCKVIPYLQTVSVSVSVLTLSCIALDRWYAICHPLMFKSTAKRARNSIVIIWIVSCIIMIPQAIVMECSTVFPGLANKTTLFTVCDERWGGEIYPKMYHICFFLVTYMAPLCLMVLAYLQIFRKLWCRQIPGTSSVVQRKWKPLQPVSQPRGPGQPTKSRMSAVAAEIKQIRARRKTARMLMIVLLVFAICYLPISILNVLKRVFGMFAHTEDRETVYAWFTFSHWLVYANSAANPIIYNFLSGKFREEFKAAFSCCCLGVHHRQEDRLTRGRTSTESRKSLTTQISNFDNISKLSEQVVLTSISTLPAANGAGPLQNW
Series [2] relates to ICR mice. The experiment in a line: Autonomous activities of mice. Type of series: in vivo. As to conditions: male ICR mice; for Inhibition rate (%): vs vehicle; for Movement distance (m): within 60 min, Mean±SD. The method, then: Male ICR mice aged 6-9 weeks were randomly divided into groups based on body weight balance, with 8 or 9 mice per group, and the groups were given blank vehicle and 10, 30, and 100 mg/kg of the test compound, respectively. The animals were placed in a test chamber immediately after administration, and the activity distances of the animals within 60 min were recorded and analyzed with Top Scan Version 3.0. […] Experimental data were expressed as mean±standard deviation (Mean±SD). One-way ANOVA analysis was performed using SPSS 21.0 statistical software, and pairwise comparisons were performed using Dunnett's test, with p<0.05 represented by *.

Series [3] deals with ICR mice. As to the kind of experiment: Pentobarbital sodium synergistic sleep test. Type of series: in vivo. The note with it: male ICR mice, pentobarbital sodium 45 mg/kg ip, Mean±SD. As for the experimental part:
Male ICR mice aged 6-9 weeks were randomly divided into groups based on body weight balance, with 8 mice per group, and the groups were given blank vehicle and 3, 10, and 30 mg/kg of the test compound, respectively. After 5 min, pentobarbital sodium was intraperitoneally injected at 45 mg/kg. The moments when righting reflexes disappeared and the moments when righting reflexes reappeared in mice were recorded. Sleep latency=moment when righting reflex disappeared−moment when pentobarbital sodium was administered, and sleep duration=moment when righting reflex reappeared−moment when righting reflex disappeared. […] Experimental data were expressed as mean±standard deviation (Mean±SD). One-way ANOVA analysis was performed using SPSS 21.0 statistical software, and pairwise comparisons were performed using Dunnett's test, with p<0.05 represented by *.

Chain of OX1 receptor (O43613 whole entry): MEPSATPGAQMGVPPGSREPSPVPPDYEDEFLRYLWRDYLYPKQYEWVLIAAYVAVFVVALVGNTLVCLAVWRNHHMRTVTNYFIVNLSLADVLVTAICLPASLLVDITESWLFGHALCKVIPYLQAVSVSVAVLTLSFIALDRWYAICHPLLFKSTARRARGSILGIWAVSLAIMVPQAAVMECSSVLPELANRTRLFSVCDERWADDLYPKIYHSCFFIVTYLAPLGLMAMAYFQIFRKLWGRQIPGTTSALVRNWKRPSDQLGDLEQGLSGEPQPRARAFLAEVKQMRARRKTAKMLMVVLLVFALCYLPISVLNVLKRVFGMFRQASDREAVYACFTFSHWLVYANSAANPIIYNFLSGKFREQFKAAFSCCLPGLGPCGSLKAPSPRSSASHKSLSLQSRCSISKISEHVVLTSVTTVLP

Usually AUC(0-t) stands for the area under the concentration-time curve up to a stated or last time point. The low end stands for low exposure, the high end for high exposure. One may read the Cmax as the maximum level reached in the sampled fluid or tissue. The term bioavailability denotes dose-corrected exposure relative to a reference, in per cent. As usually defined, the IC50 is the concentration needed to halve the response being measured. Read a high IC50 as a need for much substance. As to `Cc1cc(C)nc(N2C[C@H]3CN(C(=O)c4c(-c5ncccc5F)cn5ccccc45)C[C@H]3C2)n1` [Example 3, ((3aR,6aS)-5-(4,6-dimethylpyrimidin-2-yl)hexahydropyrrolo[3,4-c]pyrrol-2(1H)-yl)(2-(3-fluoropyridin-2-yl)indolizin-1-yl)methanone], the values for the AUC(0-t) in series [1] (PO 10 mg/kg) and in series [1] (iv 1 mg/kg) were 2000 ng·h/mL and 355 ng·h/mL, respectively. The Cmax in series [1] (PO 10 mg/kg) was found to be 2780 ng/mL; in series [1] (iv 1 mg/kg), 875 ng/mL. For the same compound, the bioavailability in series [1] was determined as 56.3%. The results for the IC50 on OX1 receptor and on OX2 receptor were > 1000 nM and < 100 nM, respectively. Further, the “Inhibition rate (%)” value was −5.22% with ICR mice [2] (10 mg/kg), 9.82% in the series on ICR mice [2] (30 mg/kg) and 40.63% with ICR mice [2] (100 mg/kg). In addition, the “Movement distance (m)” value in the series with ICR mice [2] (10 mg/kg) is 68.58 ± 24.42 m; in the series with ICR mice [2] (30 mg/kg), 58.78 ± 18.31 m; with ICR mice [2] (100 mg/kg), 38.69 ± 13.98 m. Moreover, the “Sleep duration” value came out at 57.88 ± 23.72 min in the series on ICR mice [3] (3 mg/kg), 62.73 ± 29.84 min in the series on ICR mice [3] (10 mg/kg) and 63.15 ± 34.38 min in the series with ICR mice [3] (30 mg/kg). The entries for the “Sleep latency” value in the series on ICR mice [3] (3 mg/kg), in the series with ICR mice [3] (10 mg/kg) and in the series with ICR mice [3] (30 mg/kg) were 15.21 ± 4.60 min, 17.72 ± 6.04 min and 24.28 ± 8.97 min, respectively.

With `Cc1cc(C)nc(N2C[C@H]3CN(C(=O)c4c(-c5cccs5)nn5ccccc45)C[C@H]3C2)n1` [Example 5, ((3aR,6aS)-5-(4,6-dimethylpyrimidin-2-yl)hexahydropyrrolo[3,4-c]pyrrol-2(1H)-yl)(2-(thiophen-2-yl)pyrazolo[1,5-a]pyridin-3-yl)methanone], the half-maximal inhibitory concentration (IC50) at OX1 receptor was > 1000 nM; on OX2 receptor it was < 100 nM. Also, the “Inhibition rate (%)” value with ICR mice [2] (10 mg/kg) worked out at 2.37%; with ICR mice [2] (30 mg/kg), 46.97%; in the series with ICR mice [2] (100 mg/kg), 49.17%. Further, the “Movement distance (m)” value in the series on ICR mice [2] (10 mg/kg) came out at 63.64 ± 33.70 m; with ICR mice [2] (30 mg/kg) it was 34.56 ± 10.71 m; in the series with ICR mice [2] (100 mg/kg), 33.13 ± 14.64 m.

Turning to `Cc1cc(C)nc(N2C[C@H]3CN(C(=O)c4c(-c5ccccn5)nn5cc(F)ccc45)C[C@H]3C2)n1` [Example 30, ((3aR,6aS)-5-(4,6-dimethylpyrimidin-2-yl)hexahydropyrrolo[3,4-c]pyrrol-2(1H)-yl)(6-fluoro-2-(pyridin-2-yl)pyrazolo[1,5-a]pyridin-3-yl)methanone], the AUC(0-t) in series [1] (PO 10 mg/kg) was determined as 353 ng·h/mL; in series [1] (iv 1 mg/kg), 143 ng·h/mL. The Cmax in series [1] (PO 10 mg/kg) stood at 668 ng/mL; in series [1] (iv 1 mg/kg) it was 439 ng/mL. Besides, the bioavailability in series [1] was found to be 24.6%. In addition, the results for the IC50 against OX1 receptor and at OX2 receptor were > 1000 nM and < 100 nM, respectively. Also, the “Sleep duration” value was found to be 62.34 ± 17.87 min with ICR mice [3] (3 mg/kg), 66.79 ± 14.88 min in the series on ICR mice [3] (10 mg/kg) and 65.61 ± 19.83 min in the series on ICR mice [3] (30 mg/kg). Besides, the “Sleep latency” value was 5.03 ± 0.51 min in the series with ICR mice [3] (3 mg/kg), 5.17 ± 0.81 min with ICR mice [3] (10 mg/kg) and 6.52 ± 5.25 min in the series on ICR mice [3] (30 mg/kg).

On to `Cc1cc(C)nc(N2C[C@H]3CN(C(=O)c4c(-c5ccncc5)nn5ccccc45)C[C@H]3C2)n1` [Example 34, ((3aR,6aS)-5-(4,6-dimethylpyrimidin-2-yl)hexahydropyrrolo[3,4-c]pyrrol-2(1H)-yl)(2-(pyridin-4-yl)pyrazolo[1,5-a]pyridin-3-yl)methanone], for which the figures for the exposure AUC(0-t) in series [1] (PO 10 mg/kg) and in series [1] (iv 1 mg/kg) were 560 ng·h/mL and 221 ng·h/mL, respectively. In addition, the Cmax in series [1] (PO 10 mg/kg) stood at 925 ng/mL; in series [1] (iv 1 mg/kg), 715 ng/mL. For the same compound, the bioavailability in series [1] was found to be 25.3%. Moreover, the IC50 at OX1 receptor is > 1000 nM; on OX2 receptor, < 100 nM. Further, the figures for the “Inhibition rate (%)” value in the series with ICR mice [2] (10 mg/kg), with ICR mice [2] (30 mg/kg) and in the series on ICR mice [2] (100 mg/kg) were 8.19%, 28.13% and 50.36%, respectively. Also, the “Movement distance (m)” value with ICR mice [2] (10 mg/kg) was 59.84 ± 19.89 m; with ICR mice [2] (30 mg/kg), 46.84 ± 16.61 m; in the series with ICR mice [2] (100 mg/kg), 32.36 ± 20.35 m.

Turning to `Cc1cc(C)nc(N2C[C@H]3CN(C(=O)c4c(-c5cccnc5)nn5ccccc45)C[C@H]3C2)n1` [Example 36, [(3aR,6aS)-5-(4,6-dimethylpyrimidin-2-yl)hexahydropyrrolo[3,4-c]pyrrol-2(1H)-yl][2-(pyridin-3-yl)pyrazolo[1,5-a]pyridin-3-yl]methanone], the IC50 was > 1000 nM against OX1 receptor and < 100 nM at OX2 receptor. For the same compound, the “Inhibition rate (%)” value was determined as 32.08% in the series with ICR mice [2] (10 mg/kg), 34.37% in the series on ICR mice [2] (30 mg/kg) and 57.33% in the series on ICR mice [2] (100 mg/kg). For the same compound, the “Movement distance (m)” value in the series with ICR mice [2] (10 mg/kg) was 44.27 ± 13.76 m; in the series with ICR mice [2] (30 mg/kg), 42.78 ± 20.27 m; in the series with ICR mice [2] (100 mg/kg) it was 27.81 ± 19.12 m. In addition, the “Sleep duration” value came to 50.35 ± 9.35 min with ICR mice [3] (3 mg/kg), 38.89 ± 10.66 min in the series with ICR mice [3] (10 mg/kg) and 56.19 ± 27.74 min in the series on ICR mice [3] (30 mg/kg). Besides, the “Sleep latency” value in the series on ICR mice [3] (3 mg/kg) is on record as 10.21 ± 4.49 min; in the series with ICR mice [3] (10 mg/kg) it was 10.58 ± 5.65 min; with ICR mice [3] (30 mg/kg), 8.84 ± 3.67 min.

As to `Cc1cc(C)nc(N2C[C@H]3CN(C(=O)c4c(-c5cccs5)nn5cc(F)ccc45)C[C@H]3C2)n1` [Example 37, [(3aR,6aS)-5-(4,6-dimethylpyrimidin-2-yl)hexahydropyrrolo[3,4-c]pyrrol-2(1H)-yl][6-fluoro-2-(thiophen-2-yl)pyrazolo[1,5-a]pyridin-3-yl]methanone], the IC50 is > 1000 nM at OX1 receptor and < 100 nM on OX2 receptor. Besides, the “Inhibition rate (%)” value was 5.03% in the series on ICR mice [2] (10 mg/kg), 37.27% with ICR mice [2] (30 mg/kg) and 39.52% in the series on ICR mice [2] (100 mg/kg). The entries for the “Movement distance (m)” value in the series on ICR mice [2] (10 mg/kg), in the series with ICR mice [2] (30 mg/kg) and with ICR mice [2] (100 mg/kg) were 61.90 ± 16.82 m, 40.89 ± 21.03 m and 39.42 ± 13.92 m, respectively.
